Experimental data published in ChEMBL document CHEMBL1201862, “PubChem BioAssay data set” (2004).
Calls of active or inactive are those of the source.

How the values were obtained:
[1] = Luminescence Cell-Based Dose Retest to Confirm Inhibitors of Cancer Stem Cells. [Related pubchem assays (depositor defined):AID2717, AID2721]; format: functional; conditions: Homo sapiens
[2] = biological target: T1, Ubiquitin-conjugating enzyme E2 N (Homo sapiens, UniProt P61088); format: functional;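 note: Dose-response confirmation in a TR-FRET assay detecting UBC13-driven polyubiquitin chain formation, inhibition measured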
T1 sequence (P61088 whole entry): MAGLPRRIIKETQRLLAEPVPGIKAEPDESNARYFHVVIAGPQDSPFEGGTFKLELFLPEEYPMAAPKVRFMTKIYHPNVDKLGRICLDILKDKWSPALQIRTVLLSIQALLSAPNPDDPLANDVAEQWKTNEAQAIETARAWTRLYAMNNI

[3] = biological target: T2, Polyadenylate-binding protein 1 (Homo sapiens, UniProt P11940); test: PABP1 MLLE–PAM2 interaction inhibitors, dose response, miRNA deadenylation inhibitor project, biochemical, fluorescence polarization, Cy5-PAM2 peptide, secondary (AID 602260); format: functional; conditions: read-out: IC50_Mean
T2 sequence (P11940 whole entry): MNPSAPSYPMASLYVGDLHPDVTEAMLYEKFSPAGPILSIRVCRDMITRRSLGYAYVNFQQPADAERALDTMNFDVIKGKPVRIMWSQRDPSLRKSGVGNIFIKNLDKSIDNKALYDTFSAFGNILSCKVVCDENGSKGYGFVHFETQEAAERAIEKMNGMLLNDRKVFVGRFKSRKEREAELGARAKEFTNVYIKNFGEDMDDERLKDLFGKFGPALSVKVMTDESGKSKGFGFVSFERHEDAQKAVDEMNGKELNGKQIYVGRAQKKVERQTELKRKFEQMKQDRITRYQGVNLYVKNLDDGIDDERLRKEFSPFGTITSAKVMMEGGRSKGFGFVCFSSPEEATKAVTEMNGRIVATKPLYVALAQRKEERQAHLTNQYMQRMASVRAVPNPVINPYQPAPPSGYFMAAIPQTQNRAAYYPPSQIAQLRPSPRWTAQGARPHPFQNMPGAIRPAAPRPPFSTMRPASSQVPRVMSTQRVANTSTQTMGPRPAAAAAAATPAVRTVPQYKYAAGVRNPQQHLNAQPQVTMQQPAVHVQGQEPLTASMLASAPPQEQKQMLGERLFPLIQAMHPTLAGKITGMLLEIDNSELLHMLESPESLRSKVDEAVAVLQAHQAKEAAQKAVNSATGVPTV

[4] = biological target: T2, Polyadenylate-binding protein 1; test: PABP1 MLLE–PAM2 binding inhibitor potency, dose response, biochemical, fluorescence polarization, FITC-PAM2 peptide (AID 602259); format: functional; conditions: read-out: IC50_Mean
[5] = biological target: FAD-linked sulfhydryl oxidase ALR (Homo sapiens, UniProt P55789); test: inhibitors of human ALR sulfhydryl oxidase, dose response, biochemical, H2O2 detection, luminescence, cherry-pick (AID 493248)
Sequence of FAD-linked sulfhydryl oxidase ALR (P55789 whole entry): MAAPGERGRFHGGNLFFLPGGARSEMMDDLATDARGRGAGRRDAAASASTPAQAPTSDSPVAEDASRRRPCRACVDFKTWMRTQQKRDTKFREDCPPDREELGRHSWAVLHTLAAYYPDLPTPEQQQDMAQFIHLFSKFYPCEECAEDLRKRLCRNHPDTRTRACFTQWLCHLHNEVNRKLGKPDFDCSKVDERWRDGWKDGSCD

Leucine aminopeptidase = biological target: T3, Leucine aminopeptidase (Plasmodium falciparum 3D7, UniProt Q8IL11); test: P. falciparum M17LAP inhibitors, primary screen, biochemical, fluorogenic H-Leu-NHMec substrate, 1536-well (AID 1619); format: functional
T3 sequence (Q8IL11 whole entry): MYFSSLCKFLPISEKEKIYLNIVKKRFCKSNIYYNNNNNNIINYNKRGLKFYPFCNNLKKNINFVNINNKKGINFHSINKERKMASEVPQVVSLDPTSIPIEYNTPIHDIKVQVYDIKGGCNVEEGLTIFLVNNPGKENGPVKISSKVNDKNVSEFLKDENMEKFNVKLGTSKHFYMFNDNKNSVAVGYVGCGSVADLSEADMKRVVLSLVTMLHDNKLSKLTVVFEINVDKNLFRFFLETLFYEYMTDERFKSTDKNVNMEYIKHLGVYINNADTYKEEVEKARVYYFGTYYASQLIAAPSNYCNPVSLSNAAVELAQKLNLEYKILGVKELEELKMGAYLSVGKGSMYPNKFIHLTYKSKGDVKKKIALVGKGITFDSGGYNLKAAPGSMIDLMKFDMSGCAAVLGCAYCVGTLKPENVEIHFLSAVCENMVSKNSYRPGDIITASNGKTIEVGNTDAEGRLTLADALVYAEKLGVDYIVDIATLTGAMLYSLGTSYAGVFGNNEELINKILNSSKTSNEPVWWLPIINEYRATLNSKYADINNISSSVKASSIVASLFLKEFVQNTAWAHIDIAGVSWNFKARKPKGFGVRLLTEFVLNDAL

[6] = biological target: T4, RNA-binding protein pos-1 (Caenorhabditis elegans, UniProt G5EF15); test: inhibitors of POS-1/mex-3 RNA binding, dose response, biochemical, fluorescence polarization (AID 1964);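 note: purified POS-1 fused to maltose binding protein made in E. coli; potency of compounds blocking POS-1 binding to fluorescent RNA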
T4 sequence (G5EF15 whole entry): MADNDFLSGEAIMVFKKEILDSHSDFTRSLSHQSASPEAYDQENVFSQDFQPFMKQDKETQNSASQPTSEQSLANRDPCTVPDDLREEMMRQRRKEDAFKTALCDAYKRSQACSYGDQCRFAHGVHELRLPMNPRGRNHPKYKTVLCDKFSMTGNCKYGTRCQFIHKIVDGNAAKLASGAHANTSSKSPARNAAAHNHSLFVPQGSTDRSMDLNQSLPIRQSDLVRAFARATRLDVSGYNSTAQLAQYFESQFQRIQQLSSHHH

INS1 = test: beta cell apoptosis inhibitors, cytokine rescue, dose response, luminescence, retest (AID 449756); format: functional, cell-based; conditions: Rattus norvegicus;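 note: cell death triggered by IL-1 beta plus TNF-alpha plus IFN-gamma mixture; protective hits raise ATP signal compared with cytokine alone wells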
[7] = inhibitors of clade B AD8 Env fusion, dose response, cell-based, cherry-pick (AID 652062); format: functional;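 note: luciferase signal from cell-cell fusion driven by HIV-1 clade B AD8 Env; potency is for inhibitors of fusion seen as a drop in luminescence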
[8] = NIH-3T3 fibroblast cytotoxicity, dose response, cytotoxicity control, cell-based, fluorescence, Alamar Blue, secondary assay (AID 2327); format: functional;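 note: NIH-3T3 mouse fibroblasts cultured with fluconazole at 8 µg/mL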
[9] = C. albicans growth with fluconazole, confirmation, fluorescence, retest (AID 2467); format: functional, cell-based
[10] = growth suppression of PTEN-null colon cells, dose response, cell-based, HCT116 PTEN knockout (AID 1047); format: functional;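 note: HCT116 colon tumor cells with PTEN knocked out; cells exposed to compound for 60 hours before readout; potency for loss of cell viability measured by luminescence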
[11] = growth suppression of beta-catenin-knockout colon cells, dose response, cell-based, HCT116, human colon tumor (AID 1045); format: functional;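 note: HCT116 colon tumor cells with beta catenin knocked out; cells exposed to compound for 60 hours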
Nonstructural protein 1 = Nonstructural protein 1 (Influenza A virus, UniProt Q194T2); format: functional, Influenza A virus (A/California/07/2009(H1N1))
Sequence of Nonstructural protein 1 (Q194T2 whole entry): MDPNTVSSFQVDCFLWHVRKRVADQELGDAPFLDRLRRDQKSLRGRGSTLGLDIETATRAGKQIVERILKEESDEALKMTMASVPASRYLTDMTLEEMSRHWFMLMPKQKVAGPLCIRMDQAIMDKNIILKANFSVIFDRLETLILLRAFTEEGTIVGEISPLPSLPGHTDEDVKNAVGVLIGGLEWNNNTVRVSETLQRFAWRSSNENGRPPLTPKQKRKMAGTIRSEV

[12] = cytotoxicity in HEK-293T cells, dose response, cytotoxicity control for TCR NF-kB inhibitor project, luminescence, T-cell screen hits (AID 489026); format: functional, cell-based;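 note: cells exposed to compound about 14 hours before the viability readout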
[13] = biological target: T5, Rac GTPase-activating protein 1 (Homo sapiens, UniProt Q9H0H5); test: MgcRacGAP GTPase-activating activity inhibitors, confirmation, biochemical, ADP Hunter fluorescence, primary and confirmatory (AID 624330); format: functional
T5 sequence (Q9H0H5 whole entry): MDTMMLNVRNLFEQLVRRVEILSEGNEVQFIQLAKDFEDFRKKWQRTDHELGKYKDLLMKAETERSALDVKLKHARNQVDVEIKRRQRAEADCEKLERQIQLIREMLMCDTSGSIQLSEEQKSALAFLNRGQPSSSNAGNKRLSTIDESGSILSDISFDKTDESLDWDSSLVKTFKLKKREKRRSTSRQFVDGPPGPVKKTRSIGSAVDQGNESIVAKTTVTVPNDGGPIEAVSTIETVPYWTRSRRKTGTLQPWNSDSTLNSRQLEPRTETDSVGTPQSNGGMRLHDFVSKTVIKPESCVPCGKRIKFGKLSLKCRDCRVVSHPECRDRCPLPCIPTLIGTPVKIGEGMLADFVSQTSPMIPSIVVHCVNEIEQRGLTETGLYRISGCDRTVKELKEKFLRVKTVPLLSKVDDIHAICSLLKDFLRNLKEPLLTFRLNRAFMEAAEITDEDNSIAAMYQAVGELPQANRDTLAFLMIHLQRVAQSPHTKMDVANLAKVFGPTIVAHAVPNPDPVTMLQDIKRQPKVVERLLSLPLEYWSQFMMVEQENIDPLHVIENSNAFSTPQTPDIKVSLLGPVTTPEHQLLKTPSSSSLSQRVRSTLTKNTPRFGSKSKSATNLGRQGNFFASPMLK

P388/ADR = test: cells; format: functional; conditions: Mus musculus
SN12K1 = test: cells; format: functional; conditions: Homo sapiens
P388 = test: cells; format: functional; conditions: Mus musculus
[14] = Luminescence Cell-Based Dose Response HTS to Identify Inhibitors of 5'UTR Stem-Loop Driven Prion Protein mRNA Translation in H4 Neuroglioblastoma Cells. [Related pubchem assays: 1827 (Project Summary), 1813 (Primary HTS)]; format: functional
[15] = Shn3 3'UTR reporter inhibitors, dose response, cell-based, Clone20 osteoblasts, firefly luciferase, cherry-picked (AID 624132); format: functional;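 note: firefly luciferase luminescence from reporter carrying the Shn3 3'UTR in osteoblasts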
[16] = HepG2 cell cytotoxicity, dose response, cytotoxicity control for Shn3 inhibitor project, CellTiter-Glo, cherry-picked (AID 624134); format: functional, cell-based
[17] = control 3'UTR Renilla luciferase suppression, dose response, counter-screen for Shn3 inhibitor project, cell-based, Clone20-Shn3RL, cherry-picked (AID 624133); format: functional

## COc1ccc(-c2sc3cc4c(cc3c2C#CC2(N)CCCCC2)OCO4)cc1
[1]
  AC50: 1.48 µM (active)
[2]
  IC50: > 20 µM (inactive)

## O=C(NC(=S)Nc1cccc(Cl)c1N1CCOCC1)c1cccs1
[3]
  IC50: > 66 µM (inactive)
[4]
  IC50: > 66 µM (inactive)

## Cc1ccn2cc(-c3cccc(NC(=O)CCC(=O)O)c3)nc2c1
[5]
  AC50: 0.618 µM (active)

## COc1cc(O)c(C(CCN2CCCCC2)c2ccc(N(C)C)cc2)c(OC)c1 (stereo unspecified)
[5]
  AC50: 1.83 µM (active)

## O=C(c1ccc2c(c1)OCO2)N1CCN=C1SCc1cccnc1
[5]
  AC50: 0.076 µM (active)

## O=C(O)C12CC3CC(C1)CC(n1ncc(NCc4ccccc4)c(Cl)c1=O)(C3)C2
Leucine aminopeptidase
  IC50: 90 µM (active)

## Cc1cc2ncn(-c3ncccc3[N+](=O)[O-])c2cc1C
[3]
  IC50: > 66 µM (inactive)
[4]
  IC50: > 66 µM (inactive)

## CCOc1ccc(NC(=O)C2CC=CCC2C(=O)O)cc1 (stereo unspecified)
Leucine aminopeptidase
  IC50: 10.5 µM (active)

## CC(=O)Nc1ccc(S(=O)(=O)NNC(=O)C(=O)NNc2ccccn2)cc1
[6]
  EC50: > 300 µM (not active)
[2]
  IC50: > 20 µM (inactive)

## Cc1ccccc1OCCCCn1cnc2ccccc21
INS1
  AC50: 6.87 µM (active)
[7]
  AC50: 4.16 µM (active)

## O=[N+]([O-])c1ccc2[nH]c3c(c2c1)CCCC3
[5]
  AC50: 15.6 µM (active)

## COc1cc(/C=C/C(=O)Nc2nnc(CC(C)(C)C)s2)cc(OC)c1OC
[3]
  IC50: > 66 µM (inactive)
[4]
  IC50: > 66 µM (inactive)

## Cc1ccccc1C(=O)Nc1nnc(-c2ccc(F)cc2)o1
[8]
  EC50: > 150 µM (inactive)
[9]
  EC50: 1.25 µM (active)
[10]
  EC50: 18.4 µM (active)
[11]
  EC50: 16.6 µM (active)

## CCOc1ccc(NC(=O)CSc2nnc(CCNC(=O)c3ccc(OC)cc3)n2CC)cc1
Leucine aminopeptidase
  IC50: 8.71 µM (active)

## CCN1C(=O)C(=Cc2ccc(C)s2)C(=O)N(CC)C1=S
[10]
  EC50: 9.84 µM (active)
[11]
  EC50: 31.9 µM (active)

## CCOc1ccc(-c2nc(C#N)c(N3CCN(Cc4ccccc4)CC3)o2)cc1
Nonstructural protein 1
  IC50: > 100 µM (active)

## Cc1oc(C(C)(C)C)cc1C(=O)NC(Cc1ccccc1)C(=O)O (stereo unspecified)
Leucine aminopeptidase
  IC50: 12.7 µM (active)

## O=C(Nc1ncc(Cc2ccc(SC(F)F)cc2)s1)c1ccc(OC(F)F)cc1
[1]
  AC50: < 0.16 µM (active)
[12]
  IC50: > 80 µM (inactive)

## COc1ccc(NC(=O)NCCCN2CCN(c3cc(C)ccc3C)CC2)cc1
[10]
  EC50: 10.2 µM (active)
[11]
  EC50: 7.42 µM (active)

## O=[N+]([O-])c1ccc(S(=O)(=O)Nc2ccc3c(c2)OCCO3)cc1
[3]
  IC50: > 66 µM (inactive)
[4]
  IC50: > 66 µM (inactive)

## Cc1cc(C)c(NC(=O)CN2C(=O)NC3(CCCCC3)C2=O)c(C)c1
Leucine aminopeptidase
  IC50: 19.5 µM (active)

## COc1ccc(N=Nc2cc(OC)c(N)cc2OC)cc1
Nonstructural protein 1
  IC50: 35.3 µM (active)
[13]
  IC50: 35.2 µM (active)

## Cc1ccccc1-c1nc(S(=O)(=O)c2ccccc2)c(N2CCCC2)o1
[3]
  IC50: > 66 µM (inactive)
[4]
  IC50: > 66 µM (inactive)

## Nc1nc(F)nc2c1ncn2C1OC(COP(=O)(O)O)C(O)C1O (stereo unspecified)
P388/ADR
  GI50: 4.22 µM (inactive)
SN12K1
  GI50: 18.1 µM (inactive)
P388
  GI50: 3.24 µM (inactive)

## CC1CC(C)CC(C)C(O)/C(C#N)=C/C=C/CC(C2CCCC2C(=O)O)OC(=O)CC(O)C(C)C1 (stereo unspecified)
P388/ADR
  GI50: < 0.01 µM (active)
SN12K1
  GI50: < 0.0109 µM (active)
P388
  GI50: < 0.01 µM (active)

## Cc1cc(C)c(C2=NO[C@@H]3[C@H]2C(=O)C=C2N(Cc4ccccc4)CCO[C@@]23O)c(C)c1
P388/ADR
  GI50: > 100 µM (inactive)
SN12K1
  GI50: > 100 µM (inactive)
P388
  GI50: > 100 µM (inactive)

## CC1CC=CC(O)C1 (stereo unspecified)
P388/ADR
  GI50: > 100 µM (inactive)
SN12K1
  GI50: > 100 µM (inactive)
P388
  GI50: 55 µM (inactive)

## CCN(CC)CCOC(=O)Cc1cccc2c(=O)cc(-c3ccccc3)oc12
P388/ADR
  GI50: 122 µM (inactive)
SN12K1
  GI50: 24.7 µM (inactive)
P388
  GI50: 206 µM (inactive)

## CN(C)CCNC(=O)c1ccc(Cl)c2ccc(-c3ccccc3)nc12
P388/ADR
  GI50: 1.95 µM (inactive)
SN12K1
  GI50: 2.28 µM (inactive)
P388
  GI50: 1.13 µM (inactive)

## COCC1N=C(c2cc(OC)c(OC)c(OC)c2-c2cc3c(cc2[C@@H](C)O)OCO3)O[C@H]1c1ccccc1 (stereo partly specified)
P388/ADR
  GI50: > 100 µM (inactive)
SN12K1
  GI50: 55.5 µM (inactive)
P388
  GI50: 64.3 µM (inactive)

## COc1cc(C2c3cc4c(cc3[C@@H](Nc3cccc([N+](=O)[O-])c3)C3COC(=O)[C@H]23)OCO4)cc(OC)c1O (stereo partly specified)
P388/ADR
  GI50: 0.783 µM (active)
SN12K1
  GI50: 0.589 µM (active)
P388
  GI50: < 0.0193 µM (active)

## Cc1ccnc2c1ccc1cccnc12
[12]
  IC50: > 80 µM (inactive)
Nonstructural protein 1
  IC50: 0.736 µM (active)

## Cn1c(=O)c2c(nc(N/N=C/c3ccncc3)n2Cc2ccccc2)n(C)c1=O
[5]
  AC50: 0.628 µM (active)

## O=C(Cn1cncn1)N/N=C/c1cc([N+](=O)[O-])ccc1O
Nonstructural protein 1
  IC50: 3.9 µM (active)

## N#CC(c1ccc(Cl)cc1)c1ccc2c(C(F)(F)F)cc(C(F)(F)F)nc2n1 (stereo unspecified)
[14]
  EC50: 8.03 µM (active)
[10]
  EC50: 0.349 µM (active)
[11]
  EC50: 0.321 µM (active)
INS1
  AC50: 0.54 µM (active)
[15]
  AC50: 0.487 µM (active)
[16]
  AC50: 2.97 µM (active)
[17]
  AC50: 1.38 µM (active)

## C[C@@H](CN1CC(=O)NC(=O)C1)N1CC(=O)NC(=O)C1 [DEXRAZOXANE]
P388/ADR
  GI50: 394 µM (inactive)
SN12K1
  GI50: 24.2 µM (inactive)
P388
  GI50: 49.3 µM (inactive)
